Data published in patent US20260206761A1, “HETEROARYL-TRIAZOLE COMPOUNDS AS PESTICIDES” (Bayer Aktiengesellschaft, priority 2019, published 2026).

What was measured:
Assay type in all cases: in vivo
[1] = system: larvae of the banded cucumber beetle (Diabrotica balteata); experiment: Diabrotica balteata spray test; settings: 168 h, after 7 days, read-out: activity (efficacy: seedlings grown); for pest or weed control at 100 g/ha: application rate 100 g/ha (=32 pg/well); for pest or weed control at 500 g/ha: application rate 500 g/ha (=160 pg/well)
In short: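 Read-out is % efficacy at day 7, 0% meaning no seedling growth and 100% growth equal to uninfested untreated controls. Test solutions (acetone/DMF concentrate diluted with water carrying 1000 ppm emulsifier) were sprayed onto 1-day-germinated wheat seeds, 5 per well, before infestation with 10-20 larvae.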

[2] = system: green peach aphid (Myzus persicae); experiment: Myzus persicae oral test; settings: 120 h, application rate 4 ppm, after 5 days
In short: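 Aphids of mixed population ingest the compound preparation by sucking through a parafilm sheet stretched over wells holding test solution plus IPL41 insect medium (33%+15% sugar). Kill rate in percent is determined five days later.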

[3] = system: green peach aphid (Myzus persicae); experiment: Myzus persicae spray test; settings: 120 h, after 5 days; for mortality at 100 g/ha: application rate 100 g/ha
In short: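 Chinese cabbage leaf disks carrying all instars of M. persicae sprayed with compound in acetone/DMF, diluted in water with 1000 ppm alkylarylpolyglycol ether emulsifier. Percent mortality scored after 5 days (100% = all aphids killed).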

[4] = system: larvae of the southern green stink bug (Nezara viridula); experiment: Nezara viridula spray test; settings: 96 h, after 4 days; for mortality at 100 g/ha: application rate 100 g/ha; for mortality at 500 g/ha: application rate 500 g/ha
In short: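 Larva-infested barley (Hordeum vulgare) plants received a spray of test solution prepared from an acetone/DMF concentrate diluted in emulsifier-containing water (1000 ppm). Percent kill read 4 days later; 0% means no stink bugs dead.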

[5] = system: Aedes aegypti strain MONHEIM; experiment: Aedes aegypti test (AEDSAE surface treatment & contact assay); settings: 24 hours after contact, read-out: efficacy (mortality); for mortality at 4 mg/m2: surface concentration 4 mg/m^2, exposure 30 minutes; for mortality at 20 mg/m2: surface concentration 20 mg/m^2, exposure 30 minutes
In short: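 Percent mortality was read 24 h after adult MONHEIM mosquitoes were held for 30 min on a tile treated with compound. Compound applied from acetone solution (2 mg/ml) containing 2000 ppm rapeseed oil methyl ester, after evaporation.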

[6] = system: Anopheles funestus strain FUMOZ-R; experiment: Anopheles funestus test (ANPHFU surface treatment & contact assay); settings: 24 hours after contact, read-out: efficacy (mortality); for mortality at 4 mg/m2: surface concentration 4 mg/m^2, exposure 30 minutes
Protocol: Anopheles funestus Test (ANPHFU Surface Treatment & Contact Assay)
(§1) Solvent: Aceton+2000 ppm rapeseed oil methyl ester (RME)
In order to produce a sufficient, active ingredient containing solution it is necessary to solve the test compound in the solvent-mix (acetone at 2 mg/ml/RME 2000 ppm). This solution is pipetted onto a glazed tile and after evaporation of the acetone, adult mosquitoes of the species Anopheles funestus strain FUMOZ-R (Hunt et al., Med. Vet. Entomol. 2005 September; 19(3): 271-275) are placed onto the dried surface. The exposure time is 30 minutes. Mortality in percent (%) is determined 24 hours after contact of the insects to the treated surface. 100% mortality means that all tested insects are dead, whereas 0% means that no insect died.

[7] = system: fall armyworm larvae (Spodoptera frugiperda); experiment: Spodoptera frugiperda spray test; settings: 168 h, read-out: activity (mortality)
In short: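 Larvae of fall armyworm placed on dried maize leaf sections previously sprayed with emulsified compound (acetone/DMF solvent, water with 1000 ppm emulsifier). Percent of caterpillars killed recorded on day 7, 0–100% scale.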

[8] = system: Musca domestica strain WHO-N; experiment: Musca domestica test (MUSCDO surface treatment & contact assay); settings: 24 hours after contact, read-out: efficacy (mortality); for mortality at 4 mg/m2: surface concentration 4 mg/m^2, exposure 30 minutes; for mortality at 20 mg/m2: surface concentration 20 mg/m^2, exposure 30 minutes
Protocol: Musca domestica Test (MUSCDO Surface Treatment & Contact Assay)
as §1
In order to produce a sufficient, active ingredient containing solution it is necessary to solve the test compound in the solvent-mix (acetone at 2 mg/ml/RME 2000 ppm). This solution is pipetted onto a glazed tile and after evaporation of the acetone, adult flies of the species Musca domestica strain WHO—N are placed onto the dried surface. The exposure time is 30 minutes. Mortality in percent (%) is determined 24 hours after contact of the insects to the treated surface. 100% mortality means that all tested insects are dead, whereas 0% means that no insect died.

[9] = system: adult engorged female ticks (Rhipicephalus microplus); experiment: Rhipicephalus (Boophilus) microplus injection test; settings: 168 h, egg deposition after 7 days, read-out: activity (efficacy: infertile eggs); for pest or weed control at 4 pg: application rate 4 pg/animal; for pest or weed control at 0.02 mg: application rate 20 μg/animal
In short: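 Abdominal injection, 1 μL compound/DMSO, n=5 engorged adult females; climate-chamber incubation. Readout d7: fertile egg laying; doubtful eggs held to hatch (~42 d). % efficacy = infertile eggs (100% all infertile).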

[10] = system: adult cat fleas (Ctenocephalides felis); experiment: Ctenocephalides felis in-vitro contact test, adult cat flea; settings: application rate 5 μg/cm^2 (=500 g/ha), after 48 hours, read-out: activity (efficacy: fleas dead or moribund)
In short: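 Efficacy, as % of fleas dead or moribund, was read 48 h after 5-10 adult cat fleas were confined in glass tubes whose walls carried dried compound film (900 ppm, […]). Fleas failing to escape upward from a 45-50° C plate within 5 min counted as dead or moribund.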

[11] = system: adult unfed cat fleas (Ctenocephalides felis); experiment: Ctenocephalides felis oral test; settings: 48 h, read-out: activity (mortality)
In short: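 About 20 adult unfed fleas fed through parafilm on cattle blood containing compound (DMSO stock diluted in blood), blood held at 37 °C and fleas at room temperature. Mortality (%) scored after 2 days.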

[12] = system: adult brown dog ticks (Rhipicephalus sanguineus); experiment: Rhipicephalus sanguineus in-vitro contact test, adult brown dog ticks; settings: after 48 hours, read-out: activity (efficacy: ticks dead or moribund); for pest or weed control at 100 g/ha: application rate 1 pg/cm^2 (=100 g/ha); for pest or weed control at 5 µg/cm2, 500 g/ha: application rate 5 μg/cm^2 (=500 g/ha)
In short: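 Contact exposure: dried compound film inside glass tubes, dose 5 μg/cm^2 at 900 ppm, 5-10 adults per tube at room temperature. Scored at 48 h via a heat-escape test on a 45-50° C plate for up to 5 min.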

[13] = system: Culex quinquefasciatus strain P00; experiment: Culex quinquefasciatus test (CULXFA surface treatment & contact assay); settings: 24 hours after contact, read-out: efficacy (mortality); for mortality at 4 mg/m2: surface concentration 4 mg/m^2, exposure 30 minutes; for mortality at 20 mg/m2: surface concentration 20 mg/m^2, exposure 30 minutes
Protocol: Culex quinquefasciatus Test (CULXFA Surface Treatment & Contact Assay)
as §1
In order to produce a sufficient, active ingredient containing solution it is necessary to solve the test compound in the solvent-mix (acetone at 2 mg/ml/RME 2 000 ppm). This solution is pipetted onto a glazed tile and after evaporation of the acetone, adult mosquitoes of the species Culex quinquefasciatus strain P00 are placed onto the dried surface. The exposure time is 30 minutes. Mortality in percent (%) is determined 24 hours after contact of the insects to the treated surface. 100% mortality means that all tested insects are dead, whereas 0% means that no insect died.

[14] = system: Rhipicephalus microplus larvae (strain Parkhurst, resistant against synthetic pyrethroids); experiment: Rhipicephalus (Boophilus) microplus in-vitro contact test, larval cattle tick; settings: after 48 hours, read-out: activity (efficacy: larvae dead or moribund); for pest or weed control at 500 g/ha: application rate 5 pg/cm^2 (=500 g/ha); for pest or weed control at 100 g/ha: application rate 1 pg/cm^2 (=100 g/ha)
In short: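 Larvae (20-50 per tube) exposed to dry compound film on glass tube walls, 5 μg/cm^2 at 900 ppm, applied from acetone. After 48 h at 27° C./85% RH, tubes tapped and negative geotaxis scored; efficacy as percent dead or moribund larvae.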

Row | SMILES | pest or weed control at 100 g/ha [1] [%] | mortality at 4 ppm [2] [%] | mortality at 100 g/ha [3] [%] | mortality at 4 mg/m2 [5] [%] | mortality at 20 mg/m2 [5] [%] | mortality at 100 g/ha [7] [%] | mortality at 20 mg/m2 [8] [%] | mortality at 500 g/ha [7] [%] | pest or weed control at 4 pg [9] [%] | pest or weed control at 0.02 mg [9] [%] | mortality at 100 ppm [11] [%] | pest or weed control at 100 g/ha [12] [%] | pest or weed control at 5 µg/cm2, 500 g/ha [12] [%] | pest or weed control at 500 g/ha [1] [%] | mortality at 4 mg/m2 [13] [%] | pest or weed control at 500 g/ha [14] [%] | pest or weed control at 100 g/ha [14] [%] | other results
1 | CC(NC(=O)c1cc(Cl)cc(S(C)(=O)=O)c1)c1nc(Cl)nn1-c1ncccn1 (racemic) [I-29, 3-chloro-N-[1-(5-chloro-2-pyrimidin-2-yl-1,2,4-triazol-3-yl)ethyl]-5-methylsulfonyl-benzamide] | 100 | 100 | 90 | 80 to 100 | 80 to 100 |  |  |  |  |  |  |  |  |  |  |  |  | mortality at 100 g/ha [4]: 90%; mortality at 4 mg/m2 [6]: 80 to 100%; mortality at 20 mg/m2 ([6]; surface concentration 20 mg/m^2, exposure 30 minutes): 80 to 100%
2 | COc1nc([C@H](C)NC(=O)c2cc(OC(F)(F)F)cc(S(C)(=O)=O)c2)n(-c2ccc(Cl)cn2)n1 [I-80] | 100 | 100 | 90 |  |  | 100 | 80 to 100 |  |  |  |  |  |  |  |  |  |  | mortality at 100 g/ha [4]: 100%; mortality at 500 g/ha [4]: 100%; mortality at 4 mg/m2 [8]: 80 to 100%
3 | C[C@H](NC(=O)c1cncc(C2CC2)c1)c1ncnn1-c1ccc(C#N)cn1 [II-1] |  |  |  | 80 to 100 |  |  |  | 100 |  |  |  |  |  |  |  |  |  | mortality at 4 mg/m2 [6]: 80 to 100%
4 | Cc1nc([C@H](C)NC(=O)c2cc(C)n(C)n2)n(-c2ccc(C#N)cn2)n1 [II-6] |  |  | 90 | 80 to 100 | 80 to 100 |  |  | 100 | 100 | 100 | 100 | 80 | 100 | 100 | 80 to 100 |  |  | pest or weed control at 5 µg/cm2 [10]: 100%; mortality at 500 g/ha ([3]; application rate 500 g/ha): 90%; mortality at 20 mg/m2 [13]: 80 to 100%
5 | Cc1nc([C@H](C)NC(=O)c2cc(Cl)cc(S(=O)(=O)C(F)(F)F)c2)n(-c2ccc(Cl)cn2)n1 [II-14] | 100 |  |  |  |  | 100 | 80 to 100 | 100 | 80 | 100 |  |  |  | 100 |  | 80 |  | pest or weed control at 5 µg/cm2 [10]: 90%; mortality at 500 g/ha [4]: 100%
6 | C[C@H](NC(=O)c1cc(Cl)cc(S(=O)(=O)C(F)F)c1)c1ncnn1-c1ccc(Cl)cn1 [II-37] | 100 |  |  | 80 to 100 | 80 to 100 | 100 | 80 to 100 | 100 | 100 | 100 | 100 |  |  | 100 | 80 to 100 | 100 | 100 | mortality at 20 mg/m2 [13]: 80 to 100%
7 | C[C@H](NC(=O)c1cc(C(F)(F)F)cc(S(=O)(=O)C2CC2)c1)c1ncnn1-c1ccc(Cl)cn1 [II-46] | 100 |  |  | 80 to 100 | 80 to 100 | 100 | 80 to 100 |  | 100 | 100 | 90 | 100 | 80 |  | 80 to 100 | 100 | 100 | 
8 | C[C@H](NC(=O)c1cc(C2CC2)cc(C2CC2)c1)c1ncnn1-c1ccc(C#N)cn1 [II-57] | 100 | 100 |  | 80 to 100 | 80 to 100 | 100 |  |  | 100 |  | 100 | 80 | 100 |  |  | 100 | 100 | mortality at 4 mg/m2 [8]: 80 to 100%
